Results taken from ChEMBL document CHEMBL5131517 (ACS Med Chem Lett, 2022).

What was measured:
[1] = molecular target: Muscarinic acetylcholine receptor M3 (Homo sapiens) (UniProt P20309); test: Inhibition of M3 receptor (unknown origin); details: concentration not given here
[2] = molecular target: T1, Alpha-2B adrenergic receptor (Homo sapiens) (UniProt P18089); test: Inhibition of alpha2B receptor (unknown origin); details: concentration not given here
T1 sequence (whole entry): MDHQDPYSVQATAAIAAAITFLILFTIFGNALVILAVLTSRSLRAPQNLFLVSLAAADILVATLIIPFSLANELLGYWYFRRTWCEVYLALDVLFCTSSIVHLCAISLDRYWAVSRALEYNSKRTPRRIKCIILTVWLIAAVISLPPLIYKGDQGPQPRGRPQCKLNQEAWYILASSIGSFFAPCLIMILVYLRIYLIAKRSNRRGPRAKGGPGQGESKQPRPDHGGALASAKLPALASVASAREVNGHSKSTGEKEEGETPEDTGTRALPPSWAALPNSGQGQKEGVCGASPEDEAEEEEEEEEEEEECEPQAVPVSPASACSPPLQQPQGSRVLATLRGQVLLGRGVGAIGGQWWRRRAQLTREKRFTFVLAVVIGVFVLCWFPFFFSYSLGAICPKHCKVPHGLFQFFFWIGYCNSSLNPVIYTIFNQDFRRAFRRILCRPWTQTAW

[3] = molecular target: Beta-2 adrenergic receptor (Homo sapiens) (UniProt P07550); test: Inhibition of beta 2 receptor (unknown origin); details: concentration not given here
Sequence of Beta-2 adrenergic receptor (Homo sapiens) (P07550 whole entry, looked up): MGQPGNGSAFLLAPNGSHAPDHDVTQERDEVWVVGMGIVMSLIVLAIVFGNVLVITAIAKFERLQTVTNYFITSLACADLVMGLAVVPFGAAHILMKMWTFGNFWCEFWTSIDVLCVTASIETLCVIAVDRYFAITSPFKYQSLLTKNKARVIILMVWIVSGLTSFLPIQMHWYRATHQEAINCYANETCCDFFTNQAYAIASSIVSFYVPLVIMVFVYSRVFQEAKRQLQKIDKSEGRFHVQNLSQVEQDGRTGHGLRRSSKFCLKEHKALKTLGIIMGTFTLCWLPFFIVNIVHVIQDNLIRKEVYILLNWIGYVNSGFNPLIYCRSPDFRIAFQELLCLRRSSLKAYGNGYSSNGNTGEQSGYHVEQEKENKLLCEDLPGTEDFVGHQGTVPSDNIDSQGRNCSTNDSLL

[4] = molecular target: GABA-A receptor; anion channel (Homo sapiens) (UniProt P14867+P47870+P18507+P28472+P48169+Q99928+Q9UN88+P34903+O00591+O14764+Q8N1C3+P18505+P78334+P47869+P31644+Q16445); test: Inhibition of GABA-A receptor (unknown origin); format: protein-complex assay; details: concentration not given here
[5] = molecular target: Histamine H1 receptor (Homo sapiens) (UniProt P35367); test: Inhibition of H1 receptor (unknown origin); details: concentration not given here
Sequence of Histamine H1 receptor (Homo sapiens) (P35367 whole entry): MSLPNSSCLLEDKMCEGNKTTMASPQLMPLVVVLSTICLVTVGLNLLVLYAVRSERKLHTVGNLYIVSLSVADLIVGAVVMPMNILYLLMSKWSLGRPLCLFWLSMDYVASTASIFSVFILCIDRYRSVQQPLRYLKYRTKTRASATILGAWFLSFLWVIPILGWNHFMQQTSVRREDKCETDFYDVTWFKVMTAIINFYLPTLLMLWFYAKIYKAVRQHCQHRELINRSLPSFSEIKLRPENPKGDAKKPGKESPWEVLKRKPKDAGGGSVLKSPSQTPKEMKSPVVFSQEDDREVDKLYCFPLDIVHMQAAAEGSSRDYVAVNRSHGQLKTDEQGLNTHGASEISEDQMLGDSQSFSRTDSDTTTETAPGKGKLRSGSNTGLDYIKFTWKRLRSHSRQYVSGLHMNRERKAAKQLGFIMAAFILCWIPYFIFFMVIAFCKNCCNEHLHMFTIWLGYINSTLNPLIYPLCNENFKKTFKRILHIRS

[6] = molecular target: D(2) dopamine receptor (Homo sapiens) (UniProt P14416); test: Inhibition of D2 receptor (unknown origin); details: concentration not given here
Sequence of D(2) dopamine receptor (Homo sapiens) (P14416 whole entry): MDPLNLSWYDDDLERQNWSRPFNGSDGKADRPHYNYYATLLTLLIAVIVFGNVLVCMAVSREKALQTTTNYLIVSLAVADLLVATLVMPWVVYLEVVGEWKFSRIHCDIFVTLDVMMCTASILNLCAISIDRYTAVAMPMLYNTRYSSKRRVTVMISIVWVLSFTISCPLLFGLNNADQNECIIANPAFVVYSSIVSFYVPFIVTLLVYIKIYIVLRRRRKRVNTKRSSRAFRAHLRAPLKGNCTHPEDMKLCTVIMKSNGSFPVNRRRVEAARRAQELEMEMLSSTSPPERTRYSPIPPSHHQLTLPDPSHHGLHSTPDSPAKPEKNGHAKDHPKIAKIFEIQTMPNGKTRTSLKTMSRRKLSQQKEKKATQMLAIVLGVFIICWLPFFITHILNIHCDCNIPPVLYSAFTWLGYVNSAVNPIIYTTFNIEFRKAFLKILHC

[7] = molecular target: T2, 5-hydroxytryptamine receptor 2C (Homo sapiens, UniProt P28335); test: Agonist activity at human 5HT2C receptor stably expressed in Flp-In-T-REx-293 cells assessed as increase in Gq-mediated calcium flux by Fluo-4 direct dye based FLIPR Tetra assay; format: functional, cell-based; details: read-out: EC50
T2 sequence (P28335 whole entry): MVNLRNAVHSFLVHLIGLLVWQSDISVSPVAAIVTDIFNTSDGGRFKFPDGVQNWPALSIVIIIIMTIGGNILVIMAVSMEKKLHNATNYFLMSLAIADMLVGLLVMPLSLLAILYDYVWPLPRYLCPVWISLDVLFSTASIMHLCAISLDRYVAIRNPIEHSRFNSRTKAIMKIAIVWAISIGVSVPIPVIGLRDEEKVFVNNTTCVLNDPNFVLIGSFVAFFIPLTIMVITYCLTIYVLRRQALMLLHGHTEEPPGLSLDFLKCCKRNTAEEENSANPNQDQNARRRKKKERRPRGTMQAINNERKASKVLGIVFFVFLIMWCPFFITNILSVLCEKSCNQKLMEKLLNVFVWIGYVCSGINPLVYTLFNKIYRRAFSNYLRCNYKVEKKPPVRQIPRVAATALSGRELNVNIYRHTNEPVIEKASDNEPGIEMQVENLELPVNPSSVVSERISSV

[8] = molecular target: Sigma non-opioid intracellular receptor 1 (Homo sapiens, UniProt Q99720); test: Binding affinity to sigma 1 receptor (unknown origin) assessed as inhibition constant
Sequence of Sigma non-opioid intracellular receptor 1 (Q99720 whole entry): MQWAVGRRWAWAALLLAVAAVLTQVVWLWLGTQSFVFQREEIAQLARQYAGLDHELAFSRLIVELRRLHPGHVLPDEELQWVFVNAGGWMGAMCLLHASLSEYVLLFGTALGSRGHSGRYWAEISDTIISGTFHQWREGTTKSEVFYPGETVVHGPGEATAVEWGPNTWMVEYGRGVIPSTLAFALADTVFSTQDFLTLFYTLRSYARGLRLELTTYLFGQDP

[9] = molecular target: T3, Alpha-1D adrenergic receptor (Homo sapiens) (UniProt P25100); test: Inhibition of alpha1D receptor (unknown origin); details: concentration not given here
T3 sequence (whole entry): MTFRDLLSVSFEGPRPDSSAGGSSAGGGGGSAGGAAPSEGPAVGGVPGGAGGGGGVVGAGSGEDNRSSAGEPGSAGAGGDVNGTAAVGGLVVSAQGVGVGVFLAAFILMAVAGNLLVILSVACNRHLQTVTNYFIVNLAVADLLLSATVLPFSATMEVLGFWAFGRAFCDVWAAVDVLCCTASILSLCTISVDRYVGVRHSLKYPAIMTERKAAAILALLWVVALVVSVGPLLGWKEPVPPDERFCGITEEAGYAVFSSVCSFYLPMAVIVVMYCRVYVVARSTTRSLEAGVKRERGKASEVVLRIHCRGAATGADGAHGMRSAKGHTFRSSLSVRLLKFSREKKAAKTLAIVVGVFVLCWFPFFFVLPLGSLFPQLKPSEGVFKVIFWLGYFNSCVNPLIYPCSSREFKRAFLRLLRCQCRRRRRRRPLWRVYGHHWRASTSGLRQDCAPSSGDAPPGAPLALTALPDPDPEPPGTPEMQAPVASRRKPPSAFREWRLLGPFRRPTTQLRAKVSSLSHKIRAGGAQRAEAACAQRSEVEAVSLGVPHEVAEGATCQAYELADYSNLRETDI

[10] = molecular target: 5-hydroxytryptamine receptor 2A (Homo sapiens, UniProt P28223); test: Binding affinity to 5HT2A receptor (unknown origin) assessed as inhibition constant
Sequence of 5-hydroxytryptamine receptor 2A (P28223 whole entry): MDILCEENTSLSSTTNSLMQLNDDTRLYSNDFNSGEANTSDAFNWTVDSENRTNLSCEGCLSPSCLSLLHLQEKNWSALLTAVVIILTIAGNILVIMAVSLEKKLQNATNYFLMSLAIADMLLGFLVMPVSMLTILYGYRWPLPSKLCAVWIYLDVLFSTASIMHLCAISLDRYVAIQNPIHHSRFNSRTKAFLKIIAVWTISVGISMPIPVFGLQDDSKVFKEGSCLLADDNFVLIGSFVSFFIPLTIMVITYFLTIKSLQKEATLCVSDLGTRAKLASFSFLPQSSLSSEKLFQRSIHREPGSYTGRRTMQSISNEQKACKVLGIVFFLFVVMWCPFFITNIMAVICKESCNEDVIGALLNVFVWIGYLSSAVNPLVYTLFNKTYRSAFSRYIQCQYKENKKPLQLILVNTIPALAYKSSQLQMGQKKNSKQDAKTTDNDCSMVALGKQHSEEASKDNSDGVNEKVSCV

[11] = molecular target: T4, Muscarinic acetylcholine receptor M5 (Homo sapiens) (UniProt P08912); test: Inhibition of M5 receptor (unknown origin); details: concentration not given here
T4 sequence (whole entry): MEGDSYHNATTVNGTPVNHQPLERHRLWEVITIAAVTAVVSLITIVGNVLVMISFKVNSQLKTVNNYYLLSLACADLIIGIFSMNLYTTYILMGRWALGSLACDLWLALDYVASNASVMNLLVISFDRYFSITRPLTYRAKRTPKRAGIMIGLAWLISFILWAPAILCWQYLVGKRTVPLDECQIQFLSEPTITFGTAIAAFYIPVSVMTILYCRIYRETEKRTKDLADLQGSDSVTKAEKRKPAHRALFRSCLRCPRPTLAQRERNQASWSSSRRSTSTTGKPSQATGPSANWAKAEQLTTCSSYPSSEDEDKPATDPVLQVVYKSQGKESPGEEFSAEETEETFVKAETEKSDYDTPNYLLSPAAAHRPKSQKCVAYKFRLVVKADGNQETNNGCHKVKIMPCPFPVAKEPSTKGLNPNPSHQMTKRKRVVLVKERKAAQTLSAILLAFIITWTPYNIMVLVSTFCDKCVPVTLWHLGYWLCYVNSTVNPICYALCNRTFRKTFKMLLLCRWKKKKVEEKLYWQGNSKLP

[12] = molecular target: Sodium-dependent noradrenaline transporter (Homo sapiens) (UniProt P23975); test: Inhibition of NET receptor (unknown origin); details: concentration not given here
Sequence of Sodium-dependent noradrenaline transporter (Homo sapiens) (P23975 whole entry): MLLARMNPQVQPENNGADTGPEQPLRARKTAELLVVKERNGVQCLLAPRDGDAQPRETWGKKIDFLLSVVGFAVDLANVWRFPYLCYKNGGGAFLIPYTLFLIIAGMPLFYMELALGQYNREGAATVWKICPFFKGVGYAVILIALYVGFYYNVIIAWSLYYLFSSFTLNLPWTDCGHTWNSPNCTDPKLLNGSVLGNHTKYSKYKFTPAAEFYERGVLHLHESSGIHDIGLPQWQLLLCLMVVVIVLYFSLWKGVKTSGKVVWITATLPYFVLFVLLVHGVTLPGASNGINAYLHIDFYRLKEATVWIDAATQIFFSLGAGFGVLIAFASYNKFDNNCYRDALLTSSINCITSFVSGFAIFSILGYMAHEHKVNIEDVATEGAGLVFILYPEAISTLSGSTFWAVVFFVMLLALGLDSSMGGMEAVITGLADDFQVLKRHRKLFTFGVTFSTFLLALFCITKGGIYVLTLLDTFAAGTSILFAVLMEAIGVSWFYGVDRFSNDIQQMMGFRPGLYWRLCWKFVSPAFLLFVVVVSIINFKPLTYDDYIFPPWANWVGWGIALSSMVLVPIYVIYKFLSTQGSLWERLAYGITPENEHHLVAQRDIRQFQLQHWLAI

[13] = molecular target: Histamine H4 receptor (Homo sapiens) (UniProt Q9H3N8); test: Inhibition of H4 receptor (unknown origin); details: concentration not given here
Sequence of Histamine H4 receptor (Homo sapiens) (Q9H3N8 whole entry): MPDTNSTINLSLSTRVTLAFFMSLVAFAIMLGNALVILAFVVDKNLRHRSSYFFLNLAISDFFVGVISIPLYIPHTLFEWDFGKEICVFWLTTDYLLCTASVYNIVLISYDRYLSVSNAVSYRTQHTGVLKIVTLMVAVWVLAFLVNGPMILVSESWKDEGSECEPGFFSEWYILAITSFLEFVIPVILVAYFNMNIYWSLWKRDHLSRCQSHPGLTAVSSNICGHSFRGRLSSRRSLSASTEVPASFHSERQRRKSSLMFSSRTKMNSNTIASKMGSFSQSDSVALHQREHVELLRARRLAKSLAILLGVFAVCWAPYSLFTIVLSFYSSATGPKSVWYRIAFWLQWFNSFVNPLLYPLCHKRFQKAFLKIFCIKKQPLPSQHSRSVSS

Sequence of Muscarinic acetylcholine receptor M3 (Homo sapiens) (P20309 whole entry, looked up): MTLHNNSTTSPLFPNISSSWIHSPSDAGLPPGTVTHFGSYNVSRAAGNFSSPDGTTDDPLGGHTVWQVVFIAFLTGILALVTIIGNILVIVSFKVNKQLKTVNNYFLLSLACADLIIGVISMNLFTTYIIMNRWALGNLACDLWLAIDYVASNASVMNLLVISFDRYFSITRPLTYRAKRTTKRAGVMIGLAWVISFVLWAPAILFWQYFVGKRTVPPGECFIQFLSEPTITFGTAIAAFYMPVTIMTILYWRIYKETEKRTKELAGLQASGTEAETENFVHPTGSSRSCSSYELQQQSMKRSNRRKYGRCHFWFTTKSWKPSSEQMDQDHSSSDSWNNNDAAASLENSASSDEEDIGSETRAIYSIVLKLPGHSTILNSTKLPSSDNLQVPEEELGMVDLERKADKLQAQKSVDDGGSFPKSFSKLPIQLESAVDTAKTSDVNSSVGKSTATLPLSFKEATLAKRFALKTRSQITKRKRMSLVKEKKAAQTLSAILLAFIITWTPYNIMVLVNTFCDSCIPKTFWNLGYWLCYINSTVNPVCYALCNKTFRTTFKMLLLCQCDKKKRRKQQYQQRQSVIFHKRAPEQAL

## COc1cc(OC)c(C2NCCc3c2[nH]c2ccc(F)cc32)cc1OC (stereo unspecified)
[1]
  inhibition: < 50%
[2]
  inhibition: < 50%
[3]
  inhibition: < 50%
[4]
  inhibition: < 50%
[5]
  inhibition: < 50%
[6]
  inhibition: < 50%
[7]
  EC50: 20 nM
[8]
  Ki: 760 nM
[9]
  inhibition: < 50%
[10]
  Ki: 2440 nM
[11]
  inhibition: < 50%
[12]
  inhibition: < 50%
[13]
  inhibition: < 50%

## COc1ccc(C2NCCc3c2[nH]c2ccc(F)cc32)c(O)c1 (stereo unspecified)
[1]
  inhibition: < 50%
[2]
  inhibition: < 50%
[3]
  inhibition: < 50%
[4]
  inhibition: < 50%
[5]
  inhibition: < 50%
[6]
  inhibition: < 50%
[7]
  EC50: 1.02 nM
[9]
  inhibition: < 50%
[10]
  Ki: 250 nM
[11]
  inhibition: < 50%
[12]
  inhibition: < 50%
[13]
  inhibition: < 50%

## COc1cc(OC)c(C2NCCc3c2[nH]c2ccc(Cl)cc32)cc1OC (stereo unspecified)
[1]
  inhibition: < 50%
[2]
  inhibition: < 50%
[3]
  inhibition: < 50%
[4]
  inhibition: < 50%
[5]
  inhibition: < 50%
[6]
  inhibition: < 50%
[7]
  EC50: 0.5 nM
[8]
  Ki: 1490 nM
[9]
  inhibition: < 50%
[10]
  Ki: 113 nM
[11]
  inhibition: < 50%
[12]
  inhibition: < 50%
[13]
  inhibition: < 50%

## COc1ccc(C2NCCc3c2[nH]c2ccc(Cl)cc32)c(O)c1 (stereo unspecified)
[1]
  inhibition: < 50%
[2]
  inhibition: < 50%
[3]
  inhibition: < 50%
[4]
  inhibition: < 50%
[5]
  inhibition: < 50%
[6]
  inhibition: < 50%
[7]
  EC50: 8.9 nM
[8]
  Ki: 1030 nM
[9]
  inhibition: < 50%
[10]
  Ki: 225 nM
[11]
  inhibition: < 50%
[12]
  inhibition: < 50%
[13]
  inhibition: < 50%
